In patent publication US6030997A, “Acid labile prodrugs” (priority 1998, dated 2000):

What was measured:
BALB/c mice = test: Toxicity of daily intravenous injections in BALB/c mice (proteinuria by Dipstick, mortality, gross pathology); type: in vivo, mouse (BALB/c); settings: day 3, Gentamicin 75 mg/kg i.v. daily
kidney = settings: rat, in vivo
Method: 3.1 The potential intravenous toxicity of the test article ProGenta (in a dose equimolar to 60 mg/kg of Gentamicin, Example 1) following once daily repeated intravenous administrations during 7 days, was studied in a group of seven male and seven female Fisher 344 rats, in comparison to an identically treated and equally sized group treated with the control article Gentamicin (60 mg/kg), and an untreated control group comprising six male and six female rats. All animals received 10 mg/liter of sodium bicarbonate in drinking water. All animals were allowed an additional 3-day recovery period. Final assessment of treatment effects was based on monitoring clinical signs, determinations of body weight, serum creatinine levels and urinary protein content. In addition, all animals were subjected to necropsy at termination of the study.

Fisher 344 rats = test: 7-day once daily repeated intravenous toxicity in Fisher 344 rats: clinical signs, mortality, body weight, necropsy; type: in vivo, rat (Fisher 344); settings: i.v. once daily 7 days, ProGenta equimolar to 60 mg/kg Gentamicin or Gentamicin 60 mg/kg; particularly females; especially striking Day 10
Method: All animals received 10 mg/liter of sodium bicarbonate in drinking water. All animals were allowed an additional 3-day recovery period. Final assessment of treatment effects was based on monitoring clinical signs, determinations of body weight, serum creatinine levels and urinary protein content. In addition, all animals were subjected to necropsy at termination of the study.

mice = settings: i.v.; cited from earlier work

With Gentamicin the mortality (BALB/c mice) was “the two mice in the Gentamicin group died several hours after the injection”, the proteinuria (kidney) was “reached a peak value” and the urinary protein content (kidney) was “markedly increased”. For the same substance, the weight gain (Fisher 344 rats) was “a relative reduction in normally expected weight gain” and the LD50 (mice) was 75 mg/kg.
